# Data published in patent EP0603240B1, “SAFENING HERBICIDAL PYRAZOLYLSULFONYLUREAS” (priority 1991, dated 1993).
# Assays:
# [1] = test system: corn; experiment: Example 24, Procedure II: Herbicide No. 1 + co-herbicides Nos. 4, 6, 7, 12 with Antidote Nos. 15 and 17-21; format: in vivo
# Description: (§1) Containers were filled and compacted with a fumigated silt loam top soil to a depth of about 1.3 cm from the top of the container. A first container was designated as an untreated control, a second container was designated as a herbicide control, and a third container was designated as a herbicide + antidote test container. Each of the containers was seeded with a crop species. A measured amount of herbicide dispersed or dissolved in acetone was applied to a measured quantity of soil. To this same quantity of soil treated with herbicide, there was added a measured amount of antidote dispersed or dissolved in acetone. The quantity of soil treated with the herbicide and antidote was thoroughly mixed to incorporate the herbicide and antidote in the soil uniformly. The seed bed in the third container of soil was covered with the soil treated with the herbicide and antidote and the container was leveled. For each test series, the seed beds of the first and second containers were likewise covered by soil layers. the cover layer of the first container was not treated with herbicide or antidote.
# (§2) The containers were then placed on a bench in a greenhouse and sub-irrigated as required for the duration of the test. […] Plant response is measured in terms of percent injury. Antidote efficacy is indicated as the difference in plant injury by the herbicide(s) without the antidote and with the antidote.
# (§3) This procedure is the same as Procedure I, but modified in the manner that after incorporation of the chemicals (herbicide and antidote) the containers with the covered seedbed were treated with an initial overhead irrigation equivalent to 0.6 cm rainfall, then subsequently sub-irrigated as required on greenhouse benches.
# (§4) In other greenhouse tests, using Procedure II described above, the safening efficacy of Antidote Nos. 15 and 17-21 was evaluated against Herbicide No. 1 in corn in the presence of Giant foxtail (Setaria fabergi) and Velvetleaf (Abutilon theophrasti) as representative annual monocotyledonous and dicotyledonous weeds, respectively.
# (§5) Test results are shown in Tables 23A and 23B wherein the indicated plant inhibition represents the average of duplicate replications, with observations being made thirteen (13) days after application of the chemicals. Giant foxtail and Velvetleaf are represented by the symbols "GFT" and "VL", respectively. The data in Table 23A show the test results using the antidotes at 2.24 kg/ha, whereas in Table 23B, the antidotal rate was reduced to 0.56 kg/ha.
# (§6) The tests described in Example 23 were duplicated, but in this example a variety of co-herbicides were included to ascertain the efficacy of the antidotes against combinations of Herbicide No. 1 and Herbicides Nos. 4, 6, 7 and 12 as co-herbicides. Test results are shown in Table 24, wherein the antidote application rate was 2.24 kg/ha.
# [2] = test system: Giant foxtail (Setaria fabergi); experiment: as above; format: in vivo
# Description: as §1, §2, §3, §4, §5, §6
# [3] = Herb. No. 1 0.07 Kg/ha + Co-Herb. No. 4 1.12 Kg/ha + antidote 2.24 Kg/ha
# [4] = Herb. No. 1 0.07 Kg/ha + Co-Herb. No. 6 0.14 Kg/ha + antidote 2.24 Kg/ha
# [5] = Herb. No. 1 0.07 Kg/ha + Co-Herb. No. 7 0.28 Kg/ha + antidote 2.24 Kg/ha
# [6] = Herb. No. 1 0.07 Kg/ha + Co-Herb. No. 12 0.28 Kg/ha + antidote 2.24 Kg/ha
# [7] = Herb. No. 1 0.14 Kg/ha + Co-Herb. No. 4 1.12 Kg/ha + antidote 2.24 Kg/ha
# [8] = Herb. No. 1 0.14 Kg/ha + Co-Herb. No. 6 0.14 Kg/ha + antidote 2.24 Kg/ha
# [9] = Herb. No. 1 0.14 Kg/ha + Co-Herb. No. 7 0.28 Kg/ha + antidote 2.24 Kg/ha
# [10] = Herb. No. 1 0.14 Kg/ha + Co-Herb. No. 12 0.28 Kg/ha + antidote 2.24 Kg/ha
# [11] = Herb. No. 1 0.28 Kg/ha + Co-Herb. No. 4 1.12 Kg/ha + antidote 2.24 Kg/ha
# [12] = Herb. No. 1 0.28 Kg/ha + Co-Herb. No. 6 0.14 Kg/ha + antidote 2.24 Kg/ha
# [13] = Herb. No. 1 0.28 Kg/ha + Co-Herb. No. 7 0.28 Kg/ha + antidote 2.24 Kg/ha
# [14] = Herb. No. 1 0.28 Kg/ha + Co-Herb. No. 12 0.28 Kg/ha + antidote 2.24 Kg/ha
# [15] = Herb. No. 1 0.56 Kg/ha + Co-Herb. No. 4 1.12 Kg/ha + antidote 2.24 Kg/ha
# [16] = Herb. No. 1 0.56 Kg/ha + Co-Herb. No. 6 0.14 Kg/ha + antidote 2.24 Kg/ha
# [17] = Herb. No. 1 0.56 Kg/ha + Co-Herb. No. 7 0.28 Kg/ha + antidote 2.24 Kg/ha
# [18] = Herb. No. 1 0.56 Kg/ha + Co-Herb. No. 12 0.28 Kg/ha + antidote 2.24 Kg/ha
Structure (SMILES),"% Inhibition Corn [1, 3] [%]","% Inhibition Corn [1, 4] [%]","% Inhibition Corn [1, 5] [%]","% Inhibition Corn [1, 6] [%]","% Inhibition Corn [1, 7] [%]","% Inhibition Corn [1, 8] [%]","% Inhibition Corn [1, 9] [%]","% Inhibition Corn [1, 10] [%]","% Inhibition Corn [1, 11] [%]","% Inhibition Corn [1, 12] [%]","% Inhibition Corn [1, 13] [%]","% Inhibition Corn [1, 14] [%]","% Inhibition Corn [1, 15] [%]","% Inhibition Corn [1, 16] [%]","% Inhibition Corn [1, 17] [%]","% Inhibition Corn [1, 18] [%]","% Inhibition GFT [2, 3] [%]","% Inhibition GFT [2, 4] [%]","% Inhibition GFT [2, 5] [%]","% Inhibition GFT [2, 6] [%]",other results
O=C(O)COC(c1ccccc1)c1ccccc1 [compound 19],0,0,0,0,0,0,0,0,5,5,5,5,5,10,10,20,40,100,99,99,"% Inhibition GFT [2, 7]: 60%; % Inhibition GFT [2, 8]: 100%; % Inhibition GFT [2, 9]: 99%; % Inhibition GFT [2, 10]: 99%; % Inhibition GFT [2, 11]: 45%; % Inhibition GFT [2, 12]: 99%; % Inhibition GFT [2, 13]: 99%; % Inhibition GFT [2, 14]: 100%; % Inhibition GFT [2, 15]: 70%; % Inhibition GFT [2, 16]: 99%; % Inhibition GFT [2, 17]: 99%; % Inhibition GFT [2, 18]: 99%"
O=C(O)COC(c1ccccc1)c1ccccc1 [compound 18],5,0,0,0,5,0,10,0,5,5,5,10,10,20,10,15,65,100,99,100,"% Inhibition GFT [2, 7]: 55%; % Inhibition GFT [2, 8]: 99%; % Inhibition GFT [2, 9]: 99%; % Inhibition GFT [2, 10]: 99%; % Inhibition GFT [2, 11]: 70%; % Inhibition GFT [2, 12]: 99%; % Inhibition GFT [2, 13]: 100%; % Inhibition GFT [2, 14]: 100%; % Inhibition GFT [2, 15]: 65%; % Inhibition GFT [2, 16]: 100%; % Inhibition GFT [2, 17]: 100%; % Inhibition GFT [2, 18]: 99%"
CC1COc2ccccc2N1C(=O)C(Cl)Cl (centres unmarked) [compound 17],0,5,0,5,0,0,0,5,5,15,5,5,20,15,15,20,55,100,100,99,"% Inhibition GFT [2, 7]: 50%; % Inhibition GFT [2, 8]: 100%; % Inhibition GFT [2, 9]: 100%; % Inhibition GFT [2, 10]: 99%; % Inhibition GFT [2, 11]: 45%; % Inhibition GFT [2, 12]: 98%; % Inhibition GFT [2, 13]: 100%; % Inhibition GFT [2, 14]: 98%; % Inhibition GFT [2, 15]: 70%; % Inhibition GFT [2, 16]: 99%; % Inhibition GFT [2, 17]: 99%; % Inhibition GFT [2, 18]: 100%"
COC(=O)COC(c1ccccc1)c1ccccc1 [compound 20],0,0,0,0,0,5,0,5,0,5,0,5,10,20,5,10,65,100,98,99,"% Inhibition GFT [2, 7]: 40%; % Inhibition GFT [2, 8]: 99%; % Inhibition GFT [2, 9]: 98%; % Inhibition GFT [2, 10]: 100%; % Inhibition GFT [2, 11]: 65%; % Inhibition GFT [2, 12]: 100%; % Inhibition GFT [2, 13]: 100%; % Inhibition GFT [2, 14]: 100%; % Inhibition GFT [2, 15]: 65%; % Inhibition GFT [2, 16]: 100%; % Inhibition GFT [2, 17]: 99%; % Inhibition GFT [2, 18]: 100%"
